These molecules were tested on INS-1E rat beta cells, no cytokines, CellTiter-Glo ATP, 48 h (assay: cytokine-free beta-cell viability effect – INS-1E rat cells, ATP luminescence, cherry pick, counter-screen for beta-cell apoptosis protection project, dose response (AID 463229)).

`Cc1cc(C)c(C)c(S(=O)(=O)N2CCN(c3ncnc4ccccc34)CC2)c1C` and `CC(=O)c1ccc(N2CCN(S(=O)(=O)c3ccc4c(c3)CC(C)N4C(C)=O)CC2)cc1` (centres undefined) are within 1.5-fold of each other in AC50: 6.34 µM for the first, 8.54 µM for the second.

`Cc1c2ccncc2c(C)c2c1[nH]c1ccccc12` and `Cc1ccccc1N=Nc1ccc(O)c2ncccc12` are within 1.5-fold of each other in AC50: 5.21 µM for the first, 4.41 µM for the second.

Going from `O=[N+]([O-])c1cccnc1N/N=C/c1ccccc1O` to `O=C(N/N=C/c1cc([N+](=O)[O-])ccc1O)c1cccc2ccccc12`, the AC50 rises from 5.45 µM to 9.87 µM (1.8-fold).

First: C/C(=N\NC(=O)c1ccccc1Cl)c1ccccn1
Second: C/C(=N\NC(=O)c1cc(C)nc2ccccc12)c1ccccn1
The AC50 of the first is 2.1-fold higher: 5.98 µM for the first, 2.83 µM for the second.

First: Cn1cc(C(=O)N/N=C/c2c(O)ccc3ccccc23)ccc1=O
Second: Cc1ccc(C)c(S(=O)(=O)Nc2ccc(O)c3ccccc23)c1
The AC50 of the first is 5.6-fold lower: 2.5 µM for the first, 14.1 µM for the second.

First: c1ccc(/N=C2\N=C(Nc3ccccn3)c3ccccc32)nc1
Second: Oc1c(N=Nc2ccccn2)ccc2ccccc12
The AC50 of the first is 3-fold higher: 5.52 µM for the first, 1.86 µM for the second.

Going from `NC(N)=NC(N)=Nc1ccc(SC(F)(F)F)cc1` to `Cc1[nH]n(C2=NCCS2)c(=O)c1N=Nc1cccc(C(F)(F)F)c1`, the AC50 rises from 2.76 µM to 7.05 µM (2.6-fold).

Compared with `O=C1c2ccc3c4c(ccc(c24)C(=O)N1c1cccc(O)c1)C(=O)N(c1cccc(O)c1)C3=O`, `COC(=O)c1ccccc1NC1=C/C(=N\S(=O)(=O)c2ccc(C(=O)O)cc2)c2ccccc2C1=O` is 2.7-fold higher in AC50: 3.36 µM for the first, 9.17 µM for the second.

Compared with `Cc1nnc(N=c2ssnc2Cl)o1`, `O=c1cnnc(N/N=C/c2ccccn2)[nH]1` is 3.5-fold lower in AC50: 13.6 µM for the first, 3.93 µM for the second.

Compared with `N#CC1=C(N)Oc2c(ccc3cccnc23)C1c1cccnc1` (centres undefined), `Cc1cccc(N=Nc2ccc(O)c3ncccc23)c1` is 1.5-fold lower in AC50: 7.5 µM for the first, 5 µM for the second.

Compared with `COc1cc(/C=C2\CC/C(=C\c3cc(OC)c(O)c(OC)c3)C2=O)cc(OC)c1O`, `CCCCCc1cc(=O)oc2c(C(CCN(CC)CC)c3ccc(OC)cc3)c(OC)cc(OC)c12` (centres undefined) is 3.3-fold higher in AC50: 4.29 µM for the first, 14 µM for the second.

`COc1ccc(C2C(O)C(c3c[nH]c4ccccc34)=NN2C(=O)CCl)cc1` (centres undefined) and `CC1=NN(c2nc3ccccc3[nH]2)C(=O)C1Cc1ccccc1` (centres undefined) are within 1.5-fold of each other in AC50: 2.9 µM for the first, 2.1 µM for the second.

`Fc1cc(F)c2nc(Nc3nc4c(F)cccc4s3)sc2c1` and `Cc1cccc2sc(NNC(=O)c3ccc(S(=O)(=O)N4CCc5ccccc5C4)cc3)nc12` are within 1.5-fold of each other in AC50: 4.95 µM for the first, 3.93 µM for the second.

First: Cc1ccc(C(C)C)c(OCc2ccc(C(=O)N/N=C/c3ccc(O)cc3O)cc2)c1
Second: O=C(N/N=C/c1ccc[nH]1)c1ccc(COc2cccc3cccnc23)cc1
The AC50 of the first is 2.1-fold higher: 3.99 µM for the first, 1.92 µM for the second.

Going from `COc1ccc(OC)c(NC(=O)CSc2nnc(-c3cccnc3)s2)c1` to `CCCCC(=O)NC(c1ccccc1OC)c1ccc2cccnc2c1O` (centres undefined), the AC50 falls from 7.37 µM to 2.13 µM (3.5-fold).

`CCOC(=O)CC1CCCCN1C(=O)c1cc(COc2cccc3cnccc23)on1` (centres undefined) and `COCC1CCCCN1C(=O)c1cc(COc2ccc3ncccc3c2)on1` (centres undefined) are within 1.5-fold of each other in AC50: 8.19 µM for the first, 7.39 µM for the second.

First: CCC(=O)NC(c1ccc(C)cc1)c1cc(Cl)c2cccnc2c1O (centres undefined)
Second: O=C(Oc1c(CN2CCOCC2)cc(Cl)c2cccnc12)c1ccccc1
The AC50 of the first is 2.1-fold lower: 7.97 µM for the first, 17.1 µM for the second.

Compared with `CN1/C(=C\C(=O)C[n+]2cccc(Br)c2)C(C)(C)c2ccccc21`, `C[N+]1=C(/C=C/Nc2ccccc2Cl)C(C)(C)c2ccccc21` is 2.1-fold higher in AC50: 5.88 µM for the first, 12.2 µM for the second.

First: CC(=O)OC1COC(OC2C(O)C(C)OC(OC3C(OC4CCC5(C)C(CCC6(C)C5CC=C5C7CC(C)(C)CCC7(C(=O)O)CCC56C)C4(C)CO)OCC(O)C3O)C2O)C(O)C1OC(C)=O (centres undefined)
Second: CC1CCC(C(C)C)C(OC(=O)Cn2c(-c3ccc(F)cc3)[n+](C)c3ccccc32)C1 (centres undefined)
The AC50 of the first is 1.6-fold higher: 7.09 µM for the first, 4.49 µM for the second.

First: CCOC(=O)C(=CNc1ccc(C(O)(C(=O)OCC)C(F)(F)F)cc1C)C(=O)OCC (centres undefined)
Second: CCOC(=O)/C(=C\c1ccc([N+](=O)[O-])cc1)C(=O)c1cc(C(C)=O)c(Nc2ccccc2)s1
The AC50 of the first is 2.2-fold higher: 5.26 µM for the first, 2.41 µM for the second.

First: Cc1oc2c(c1C(=O)N1CCC(C)CC1)C(=O)c1ccccc1C2=O
Second: COC(=O)c1cc(C)nc2c1C(=O)C(=O)C=C2N1CCOCC1
The AC50 of the first is 2.3-fold higher: 10.8 µM for the first, 4.66 µM for the second.

`CCN(c1ccccc1)S(=O)(=O)c1ccc(NC(=O)c2nc(S(C)(=O)=O)ncc2Cl)cc1` and `CCOc1ccc(S(=O)(=O)N(C)c2ccc(OCC(=O)Nc3nc4ccccc4s3)cc2)cc1` are within 1.5-fold of each other in AC50: 8.95 µM for the first, 7.9 µM for the second.

Going from `O=C(NC1(Cc2ccccc2)CCN(CCCc2ccccc2)C1=O)c1ccccc1` (centres undefined) to `Cc1[nH]n(-c2ccccc2)c(=O)c1/C=N/Nc1nncc(-c2ccccc2)n1`, the AC50 falls from 4.71 µM to 1.22 µM (3.9-fold).

First: CCc1ccc(C(=O)NNc2cc(Cl)ccc2Cl)cc1
Second: Cc1onc(-c2ccccc2)c1C(=O)NC(=S)NNC(=O)c1ccccc1O
The AC50 of the first is 2.3-fold lower: 8 µM for the first, 18.4 µM for the second.

First: CNc1nc(N/N=C/c2cc3c(cc2[N+](=O)[O-])OCO3)nc(Nc2ccccc2)n1
Second: Cc1ccc2nc(NC(=O)/C=C/c3ccc4c(c3)OCO4)sc2c1
The AC50 of the first is 1.9-fold higher: 14.2 µM for the first, 7.35 µM for the second.

`CC(C)(C)c1nnc(N/N=C/c2cc(Br)ccc2O)n(N)c1=O` and `Cc1cc(=O)[nH]c(N/N=C/c2ccccn2)n1` are within 1.5-fold of each other in AC50: 3.97 µM for the first, 5.21 µM for the second.

Compared with `Cc1ccc2nc(C)c(CN3CCN(c4ccc([N+](=O)[O-])cc4Cl)CC3)n2c1`, `O=C(N/N=C/c1ccc([N+](=O)[O-])s1)C(O)c1ccccc1` (centres undefined) is 2.4-fold higher in AC50: 2.92 µM for the first, 6.99 µM for the second.
